In ChEMBL document CHEMBL1124274, “Synthesis, pharmacological action, and receptor binding affinity of the enantiomeric 1-(1-phenyl-3-methylcyclohexyl)piperidines” (J Med Chem, 1988):

biological target: T1, Glutamate receptor ionotropic, NMDA 2C (Rattus norvegicus, UniProt Q00961); assay: Binding affinity against phencyclidine receptor was determined by the displacement of [3H]TCP of whole rat brain minus cerebellum.; assay type: tissue-based
T1 sequence (Q00961 whole entry): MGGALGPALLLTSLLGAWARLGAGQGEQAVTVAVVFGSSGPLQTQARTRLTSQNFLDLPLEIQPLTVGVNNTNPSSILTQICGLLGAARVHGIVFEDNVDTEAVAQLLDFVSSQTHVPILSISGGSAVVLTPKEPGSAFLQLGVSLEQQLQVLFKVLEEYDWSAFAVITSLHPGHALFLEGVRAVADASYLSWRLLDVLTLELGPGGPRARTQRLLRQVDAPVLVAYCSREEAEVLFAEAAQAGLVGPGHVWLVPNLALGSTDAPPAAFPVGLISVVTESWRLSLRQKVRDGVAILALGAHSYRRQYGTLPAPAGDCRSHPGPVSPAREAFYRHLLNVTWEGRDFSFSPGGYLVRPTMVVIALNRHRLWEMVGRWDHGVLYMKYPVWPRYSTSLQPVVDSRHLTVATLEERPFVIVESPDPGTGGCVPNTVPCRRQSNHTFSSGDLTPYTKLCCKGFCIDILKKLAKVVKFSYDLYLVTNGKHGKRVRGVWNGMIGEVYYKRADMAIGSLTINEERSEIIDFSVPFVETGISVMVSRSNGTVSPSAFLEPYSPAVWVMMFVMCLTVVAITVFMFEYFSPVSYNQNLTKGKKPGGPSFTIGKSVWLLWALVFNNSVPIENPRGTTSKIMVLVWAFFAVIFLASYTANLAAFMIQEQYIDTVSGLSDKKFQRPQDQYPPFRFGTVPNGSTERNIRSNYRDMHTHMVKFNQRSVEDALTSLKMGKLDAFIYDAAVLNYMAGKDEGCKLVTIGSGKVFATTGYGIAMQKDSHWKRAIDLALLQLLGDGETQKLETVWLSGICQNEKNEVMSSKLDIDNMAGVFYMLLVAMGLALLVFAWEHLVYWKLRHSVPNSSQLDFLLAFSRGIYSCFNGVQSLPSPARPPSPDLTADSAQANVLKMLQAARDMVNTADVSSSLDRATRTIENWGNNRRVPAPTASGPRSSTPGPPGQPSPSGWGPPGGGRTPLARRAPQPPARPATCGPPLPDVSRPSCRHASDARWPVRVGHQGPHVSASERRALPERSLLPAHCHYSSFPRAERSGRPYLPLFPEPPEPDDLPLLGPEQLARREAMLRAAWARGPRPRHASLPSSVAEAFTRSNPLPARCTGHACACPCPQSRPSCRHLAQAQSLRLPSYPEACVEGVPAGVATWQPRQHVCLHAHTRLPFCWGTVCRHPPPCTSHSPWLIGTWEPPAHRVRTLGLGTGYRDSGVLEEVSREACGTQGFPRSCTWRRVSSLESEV

Compound	Ki [nM]
C[C@H]1CCC[C@@](c2ccccc2)(N2CCCCC2)C1	3300
C[C@@H]1CCC[C@](c2ccccc2)(N2CCCCC2)C1	820
C[C@@H]1CCC[C@@](c2ccccc2)(N2CCCCC2)C1	6800
C[C@H]1CCC[C@](c2ccccc2)(N2CCCCC2)C1	170
CC1CCCN(C2(c3ccccc3)CCCCC2)C1 (stereo in doubt; (+))	60
CC1CCCN(C2(c3ccccc3)CCCCC2)C1 (stereo in doubt; (-))	2150
c1ccc(C2(N3CCCCC3)CCCCC2)cc1 [PHENCYCLIDINE]	60

biological target: T1, Glutamate receptor ionotropic, NMDA 2C; assay: Inhibition activity against binding of phencyclidine receptor was determined by the displacement of [3H]-TCP of whole rat brain minus cerebellum.; assay type: tissue-based

Compound	IC50 [nM]
c1ccc(C2(N3CCCCC3)CCCCC2)cc1 [PHENCYCLIDINE]	600
